Source: patent publication US20160051665A1, “INDUCTION OF IMMUNE RESPONSE” (priority 2010, published 2016)

Assays:
[1] = observation of woodchucks for drug-related toxicity; type: in vivo, woodchuck; conditions: 100 mg/kg orally, weighed bi-weekly, observed daily
[2] = tested on: woodchuck hepatitis virus (WHV); experiment: serum WHV DNA by dot blot hybridization in chronic WHV carrier woodchucks; type: in vivo; conditions: for WHV DNA, Av(range): serum
Description: All experimental procedures involving woodchucks were performed under protocols approved by the Cornell University Institutional Animal Care and Use Committee. Woodchucks were born to WHV-negative females in environmentally controlled laboratory animal facilities and inoculated at 3 days of age with 5 million infectious doses of a standardized WHV inoculum (23). Woodchucks were selected as chronic WHV carriers based on persistent detection of WHV surface antigen (WHsAg) and WHV DNA in serum prior to treatments. All animals were free of HCC at the beginning of the study as determined by hepatic ultrasound examination and normal serum activity of γ-glutamyl-transferase (GGT).
Twenty adult chronically infected woodchucks were stratified by age, sex, body weight, serum viral load, and serum GGT activity into four treatment groups of five animals each. Drug was administered orally at 100 mg/kg (in sterile water), chosen after an initial dose finding trial. […] The subunit vaccine consisted of 22-nm WHsAg particles, purified by zonal ultracentrifugation from serum of WHV7P1-infected WHV carriers (24), inactivated with formalin, and adsorbed onto alum. Prior to alum adsorption, vaccine was tested in naïve, WHV-susceptible animals and no residual virus was detected. Purified WHsAg was not pretreated with enzymes that remove preS sequences.
Blood samples were obtained for WHV DNA analysis and serological testing while animals were under general anesthesia (ketamine 50 mg/kg and xylazine 5 mg/kg intramuscularly). Samples were taken prior to drug administration on the first day of treatment and at the indicated time points.
Serum WHV DNA was measured quantitatively by dot blot hybridization (assay sensitivity, ≧1.0×10^7 WHV genome equivalents per ml [WHVge/ml]) (25). Serum WHsAg, antibodies to WHV core antigen (anti-WHc), and WHV surface antigen (anti-WHs) were determined with WHV-specific enzyme immunoassays (26). Serum biochemical measurements included serum GGT, alkaline phosphatase (ALP), and marker of hepatocellular injury alanine aminotransferase (ALT), aspartate aminotransferase (AST), and sorbitol dehydrogenase (SDH) (25).
Woodchucks chronically infected with WHV experienced significant immunological responses to envelope proteins following immunization with WHsAg-containing vaccines, especially in the context of low viral and antigen loads following treatment with an effective antiviral agent, 1-(2-fluoro-5-methyl-beta-L-arabinofuranosyl)-uracil (L-FMAU) (29, 35). Since BuCas treatment might be expected to reduce the amount of MHBs in the circulation and/or alter its immunological profile, the response to BuCas administration along with WHsAg vaccine was investigated. […] Animals were scored as positive if cells proliferated above the cut-off value of 2: 3.1. […]

SMILES: CCCC(=O)O[C@H]1CN2CC[C@H](O)[C@@H]2[C@@H](O)[C@H]1O [BuCas, 6-O-butanoyl castanospermine]
- drug-related toxicity [1]: no evidence of drug-related toxicity was seen
- viremia, in words ([2]; chronic WHV carrier woodchucks, all times tested): not altered significantly
- antiviral response in woodchucks ([2]; drug treated chronic WHV carrier woodchucks): no detectable antiviral response
- WHV DNA, Av(range) ([2]; week 0 (baseline), chronic WHV carrier woodchucks): 2.7(.4-7.0) genome equivalents (×10^10)
- WHV DNA, Av(range) ([2]; week 10 (4 weeks after first vaccination), UD = <E07 GE, detection limit of dot blot hybridization): 1.9(.9-4.8) genome equivalents (×10^10)
